Reference: the NIST ThermoML archive (doi:10.1016/j.jct.2006.03.015)
Numbers after ± are expanded uncertainties.

Experiment: mn = molality of the nth substance listed, in mol/kg
Details: 101 kPa, Liquid; for apparent molar heat capacity: Flow calorimetry

In the case of `CC(=O)N[C@@H](CC(N)=O)C(N)=O` [(S)-2-acetamidosuccinamide] + O, the “apparent molar heat capacity” value (288.15 K, m1 = 0.0291) is reported as 307.3 ± 27 J/K/mol, the “apparent molar heat capacity” value (288.15 K, m1 = 0.03172) is reported as 310 ± 25 J/K/mol and the “apparent molar heat capacity” value (288.15 K, m1 = 0.0368) is reported as 307.6 ± 23 J/K/mol. The “apparent molar heat capacity” value (288.15 K, m1 = 0.03929) was 308.2 ± 20 J/K/mol, the “apparent molar heat capacity” value (288.15 K, m1 = 0.04222) was 309.5 ± 19 J/K/mol and the “apparent molar heat capacity” value (288.15 K, m1 = 0.04651) was 305.7 ± 17 J/K/mol. For the same compound, the “apparent molar heat capacity” value (288.15 K, m1 = 0.05278) was 306.6 ± 17 J/K/mol, the “apparent molar heat capacity” value (288.15 K, m1 = 0.05772) was 302.8 ± 14 J/K/mol and the “apparent molar heat capacity” value (288.15 K, m1 = 0.06036) was 303.7 ± 13 J/K/mol. The “apparent molar heat capacity” value (288.15 K, m1 = 0.06513) was 306.5 ± 14 J/K/mol, the “apparent molar heat capacity” value (288.15 K, m1 = 0.07059) was 308 ± 12 J/K/mol and the mass density (288.15 K, m1 = 0.0291) was 1000.53 ± 0.26 kg/m3. For the same compound, the mass density (288.15 K, m1 = 0.03172) was 1000.65 ± 0.26 kg/m3, the mass density (288.15 K, m1 = 0.0368) was 1000.9 ± 0.26 kg/m3 and the mass density (288.15 K, m1 = 0.03929) was 1001.03 ± 0.26 kg/m3. For the same compound, the mass density (288.15 K, m1 = 0.04222) was 1001.17 ± 0.26 kg/m3, the mass density (288.15 K, m1 = 0.04651) was 1001.38 ± 0.26 kg/m3 and the mass density (288.15 K, m1 = 0.05278) was 1001.68 ± 0.26 kg/m3. The mass density (288.15 K, m1 = 0.05772) was 1001.92 ± 0.26 kg/m3, the mass density (288.15 K, m1 = 0.06036) was 1002.04 ± 0.26 kg/m3 and the mass density (288.15 K, m1 = 0.06513) was 1002.28 ± 0.27 kg/m3. The mass density (288.15 K, m1 = 0.07059) was 1002.54 ± 0.27 kg/m3, the “apparent molar heat capacity” value (298.15 K, m1 = 0.02807) was 333.1 ± 28 J/K/mol and the “apparent molar heat capacity” value (298.15 K, m1 = 0.03296) was 329.6 ± 24 J/K/mol. For the same compound, the “apparent molar heat capacity” value (298.15 K, m1 = 0.0381) was 333.3 ± 21 J/K/mol, the “apparent molar heat capacity” value (298.15 K, m1 = 0.04348) was 330.6 ± 18 J/K/mol and the “apparent molar heat capacity” value (298.15 K, m1 = 0.04618) was 330.2 ± 18 J/K/mol. The “apparent molar heat capacity” value (298.15 K, m1 = 0.05136) was 330.7 ± 16 J/K/mol, the “apparent molar heat capacity” value (298.15 K, m1 = 0.05666) was 333.4 ± 19 J/K/mol and the “apparent molar heat capacity” value (298.15 K, m1 = 0.06197) was 330.9 ± 14 J/K/mol. The “apparent molar heat capacity” value (298.15 K, m1 = 0.06198) was 333 ± 14 J/K/mol, the “apparent molar heat capacity” value (298.15 K, m1 = 0.06667) was 332.5 ± 12 J/K/mol and the “apparent molar heat capacity” value (298.15 K, m1 = 0.07247) was 331 ± 11 J/K/mol. It also gave a mass density (298.15 K, m1 = 0.02807) of 998.384 ± 0.26 kg/m3, a mass density (298.15 K, m1 = 0.03296) of 998.617 ± 0.26 kg/m3 and a mass density (298.15 K, m1 = 0.0381) of 998.865 ± 0.26 kg/m3. For the same compound, the mass density (298.15 K, m1 = 0.04348) was 999.124 ± 0.26 kg/m3, the mass density (298.15 K, m1 = 0.04618) was 999.246 ± 0.26 kg/m3 and the mass density (298.15 K, m1 = 0.05136) was 999.495 ± 0.26 kg/m3. For the same compound, the mass density (298.15 K, m1 = 0.05666) was 999.741 ± 0.26 kg/m3, the mass density (298.15 K, m1 = 0.06198) was 999.991 ± 0.26 kg/m3 and the mass density (298.15 K, m1 = 0.06667) was 1000.22 ± 0.26 kg/m3. The mass density (298.15 K, m1 = 0.07247) was 1000.49 ± 0.26 kg/m3, the “apparent molar heat capacity” value (313.15 K, m1 = 0.03215) was 353.5 ± 27 J/K/mol and the “apparent molar heat capacity” value (313.15 K, m1 = 0.03777) was 356 ± 23 J/K/mol. For the same compound, the “apparent molar heat capacity” value (313.15 K, m1 = 0.04273) was 355.6 ± 20 J/K/mol, the “apparent molar heat capacity” value (313.15 K, m1 = 0.04501) was 361.1 ± 19 J/K/mol and the “apparent molar heat capacity” value (313.15 K, m1 = 0.0481) was 358.6 ± 18 J/K/mol. The “apparent molar heat capacity” value (313.15 K, m1 = 0.05166) was 353.7 ± 17 J/K/mol, the “apparent molar heat capacity” value (313.15 K, m1 = 0.05423) was 357.7 ± 18 J/K/mol and the “apparent molar heat capacity” value (313.15 K, m1 = 0.06055) was 358.6 ± 15 J/K/mol. For the same compound, the “apparent molar heat capacity” value (313.15 K, m1 = 0.06612) was 356.4 ± 14 J/K/mol, the “apparent molar heat capacity” value (313.15 K, m1 = 0.07077) was 355.6 ± 14 J/K/mol and the “apparent molar heat capacity” value (313.15 K, m1 = 0.07187) was 357.7 ± 13 J/K/mol. The mass density (313.15 K, m1 = 0.03215) was 993.709 ± 0.28 kg/m3, the mass density (313.15 K, m1 = 0.03777) was 993.972 ± 0.28 kg/m3 and the mass density (313.15 K, m1 = 0.04273) was 994.186 ± 0.28 kg/m3. It also gave a mass density (313.15 K, m1 = 0.04501) of 994.291 ± 0.28 kg/m3, a mass density (313.15 K, m1 = 0.0481) of 994.444 ± 0.28 kg/m3 and a mass density (313.15 K, m1 = 0.05166) of 994.598 ± 0.28 kg/m3. It also gave a mass density (313.15 K, m1 = 0.05423) of 994.726 ± 0.27 kg/m3, a mass density (313.15 K, m1 = 0.06055) of 995.006 ± 0.27 kg/m3 and a mass density (313.15 K, m1 = 0.06612) of 995.264 ± 0.27 kg/m3. For the same compound, the mass density (313.15 K, m1 = 0.07077) was 995.471 ± 0.27 kg/m3, the mass density (313.15 K, m1 = 0.07187) was 995.524 ± 0.27 kg/m3 and the “apparent molar heat capacity” value (328.15 K, m1 = 0.03205) was 378.3 ± 30 J/K/mol. The “apparent molar heat capacity” value (328.15 K, m1 = 0.03805) was 377.4 ± 25 J/K/mol, the “apparent molar heat capacity” value (328.15 K, m1 = 0.0428) was 373.4 ± 22 J/K/mol and the “apparent molar heat capacity” value (328.15 K, m1 = 0.04683) was 379.4 ± 21 J/K/mol. For the same compound, the “apparent molar heat capacity” value (328.15 K, m1 = 0.05183) was 377.2 ± 22 J/K/mol, the “apparent molar heat capacity” value (328.15 K, m1 = 0.05694) was 380.7 ± 21 J/K/mol and the “apparent molar heat capacity” value (328.15 K, m1 = 0.06115) was 377.1 ± 17 J/K/mol. The “apparent molar heat capacity” value (328.15 K, m1 = 0.06488) was 376.5 ± 15 J/K/mol, the “apparent molar heat capacity” value (328.15 K, m1 = 0.06958) was 380.2 ± 17 J/K/mol and the mass density (328.15 K, m1 = 0.03205) was 987.15 ± 0.3 kg/m3. It also gave a mass density (328.15 K, m1 = 0.03805) of 987.418 ± 0.3 kg/m3, a mass density (328.15 K, m1 = 0.0428) of 987.633 ± 0.3 kg/m3 and a mass density (328.15 K, m1 = 0.04683) of 987.812 ± 0.3 kg/m3. It also gave a mass density (328.15 K, m1 = 0.05183) of 988.042 ± 0.29 kg/m3, a mass density (328.15 K, m1 = 0.05694) of 988.263 ± 0.29 kg/m3 and a mass density (328.15 K, m1 = 0.06115) of 988.455 ± 0.29 kg/m3. The mass density (328.15 K, m1 = 0.06488) was 988.623 ± 0.29 kg/m3 and the mass density (328.15 K, m1 = 0.06958) was 988.834 ± 0.29 kg/m3.
